US11058113B1, “Fly and pupa insecticide” (Fly's Water, LLC, priority 2018, dated 2021)

Columns and labels:
Type in all cases: in vivo
[1] = tested on: Musca domestica Linnaeus adult houseflies; assay: Needle inoculum (direct application) on adult flies
Description: (§1) The Solution may be poured into a container having a spray nozzle or provided in an aerosol container. Alternatively, the Solution may be poured into an open container for direct contact. The Solution may be poured directly onto pupa or sprayed. Several experiments were performed on Musca domestica Linnaeus adult houseflies, pupa, and larva using varying dilutions, concentrations, and combinations of components, along with a dihydrogen monoxide control to compare the effectiveness and potency of each composition for quickly killing adult flies, pupa, and larva. […] During experimentation, a needle inoculum (syringe) having a modified composition for adult flies, a spray inoculum having the modified composition for adult flies, and a dihydrogen monoxide control for adult flies were conducted. References to “needle inoculum” refers to directly applying the modified composition to the adult flies.

[2] = tested on: Musca domestica Linnaeus house fly; assay: Fly killing, general statements (application not specified); conditions: for independent house fly adulticidal properties of the individual component: individual formula component
From the text: The concentrations, formulas, and composition noted herein have been evaluated and tested for optimal effect against adult houseflies and pupa. Altering the preferred concentrations would decrease the effectiveness of the inventive Solution, leading to longer a time period before the flies and/or pupa are killed. The Solution may be poured into a container having a spray nozzle or provided in an aerosol container. Alternatively, the Solution may be poured into an open container for direct contact. The Solution may be poured directly onto pupa or sprayed. Several experiments were performed on Musca domestica Linnaeus adult houseflies, pupa, and larva using varying dilutions, concentrations, and combinations of components, along with a dihydrogen monoxide control to compare the effectiveness and potency of each composition for quickly killing adult flies, pupa, and larva. […] These minimal moments of delay between contact and expiration prevents the fly from falling and immediately dying in an undesired location, for example, on a food surface. […] The user can either wait for the fly to die solely from the spray, or, alternatively, the user can implement using the spray as one of the first steps for disabling the fly before immediately killing the fly with either more application of the sprayable composition or with another aid, for example, a fly swatter.
The invention, when sprayed on fly pupa, prevents the pupa from hatching. The preferred type of fly and fly pupa that are effectively killed by this Solution are Musca domestica Linnaeus houseflies. Because the composition (or Solution) is nontoxic, nonabrasive, and ingestible for humans, the Solution can be sprayed or applied directly to a surface, including food. Various experiments were conducted to evaluate the efficacy of each component used in the Solution.

[3] = tested on: Musca domestica Linnaeus adult houseflies; assay: Spray inoculum on adult flies; conditions: 75° F.
Description: as §1

[4] = FIG. 30, 50% dilution, same temperature (75° F.)
[5] = FIG. 30, needle inoculum as printed, 0% dilution of 10 mg/mL, 75° F.
[6] = 50% dilution with water, time in E36/E37
[7] = printed 50% dilution, in the figure of the 75% dilution experiment
[8] = needle inoculum, 0% (no) dilution, 75° F., time in E2/E3
[9] = needle inoculum, 50% dilution with water, 75° F.
[10] = needle inoculum, 50% dilution with water, 75° F., time in E5/E6
[11] = needle inoculum, 75% dilution with water, 75° F.
[12] = needle inoculum, 90% dilution with water, 75° F.
[13] = 90% dilution with water, 30 minutes
[14] = needle inoculum, 75% dilution with water, 75° F., 30 minutes
[15] = needle inoculum, 90% dilution with water, 75° F., 30 minutes
[16] = needle inoculum, no (0%) dilution, 75° F.

CCCCC(CC)COC(=O)CC(C(=O)OCC(CC)CCCC)S(=O)(=O)[O-].[Na+] (centres unmarked) [dioctyl sodium sulfosuccinate]
deaths of adult flies [1, 4]: 10 out of 10
time within which the deaths occurred [1, 4]: ≤ 46 s
deaths of adult flies ([1]; FIG. 30, 90% dilution): 10 out of 10
time within which the deaths occurred ([1]; FIG. 30, 90% dilution): ≤ 188 s
deaths of adult flies [1, 5]: 10 out of 10
time within which the deaths occurred [1, 5]: ≤ 36 s
time within which flies are immobilized and collapse ([2]; flies): 30 to 60 s

CCCCC(CC)COC(=O)CC(C(=O)OCC(CC)CCCC)S(=O)(=O)[O-].[Na+] (centres unmarked) [docusate, docusate sodium]
time within which the deaths occurred ([3]; 50% dilution with water): ≤ 43 s
deaths of adult flies [3, 6]: 10 out of 10
time within which the deaths occurred ([3]; 90% dilution with water): ≤ 143 s
deaths of adult flies ([3]; 90% dilution with water, time in E42/E43): 10 out of 10
deaths of adult flies ([3]; 95% dilution with water, time in E45): 10 out of 10
deaths of adult flies ([3]; 99% dilution with water, time in E47): 10 out of 10
time within which the deaths occurred ([3]; no dilution): ≤ 68 s
deaths of adult flies ([3]; no dilution, time in E33/E34): 10 out of 10
time within which the deaths occurred [3, 7]: ≤ 89 s
deaths of adult flies ([3]; printed 50% dilution, in the figure of the 75% dilution experiment, time in E39/E40): 10 out of 10
deaths of adult flies [1, 8]: 10 out of 10
time within which the deaths occurred ([1]; needle inoculum, 0% dilution, 75° F.): ≤ 48 s
time within which the deaths occurred [1, 9]: ≤ 56 s
deaths of adult flies [1, 10]: 10 out of 10
time within which the deaths occurred [1, 11]: ≤ 126 s
deaths of adult flies ([1]; needle inoculum, 75% dilution with water, 75° F., time in E8/E9): 10 out of 10
time within which the deaths occurred [1, 12]: ≤ 121 s
deaths of adult flies ([1]; needle inoculum, 90% dilution with water, 75° F., time in E11): 10 out of 10
deaths of adult flies ([1]; needle inoculum, 95% dilution with water, 75° F., time in E13): 10 out of 10
deaths of adult flies ([1]; needle inoculum, 99% dilution with water, 75° F., time in E15): 10 out of 10
independent house fly adulticidal properties of the individual component [2]: exhibit varying house fly adulticidal properties

CCO [ethyl alcohol]
deaths of adult flies [3, 6]: 10 out of 10
flight ability during the observation time ([3]; 75% dilution with water, 30 minutes): incapable of flight
deaths of adult flies within 30 minutes ([3]; 75% dilution with water): 4 out of 10
flight ability during the observation time [3, 13]: incapable of flight
deaths of adult flies within 30 minutes ([3]; 90% dilution with water): 1 out of 10
flight ability during the observation time ([3]; no dilution): incapable of flight
deaths of adult flies ([3]; no dilution, time in E33/E34): 10 out of 10
deaths of adult flies [1, 8]: 10 out of 10
flight ability during the observation time [1, 9]: incapable of flight
deaths of adult flies [1, 10]: 10 out of 10
flight ability during the observation time [1, 14]: incapable of flight
deaths of adult flies within 30 minutes [1, 11]: 1 out of 10
flight ability during the observation time [1, 15]: incapable of flight
deaths of adult flies within 30 minutes [1, 12]: 0 out of 10

OCC(O)CO [glycerin]
flight ability during the observation time ([3]; 50% dilution, 30 minutes): incapable of flight
deaths of adult flies within 30 minutes ([3]; 50% dilution): 6 out of 10
flight ability during the observation time [3, 13]: incapable of flight
deaths of adult flies within 30 minutes ([3]; 90% dilution with water): 7 out of 10
flight ability during the observation time ([3]; no dilution): incapable of flight
deaths of adult flies within 30 minutes ([3]; no dilution): 0 out of 10
flight ability during the observation time ([3]; printed 50% dilution, in the figure of the 75% dilution experiment, 30 minutes): incapable of flight
deaths of adult flies within 30 minutes [3, 7]: 6 out of 10
flight ability during the observation time [1, 9]: incapable of flight
deaths of adult flies within 30 minutes [1, 9]: 5 out of 10
flight ability during the observation time [1, 14]: incapable of flight
deaths of adult flies within 30 minutes [1, 11]: 4 out of 10
flight ability during the observation time [1, 15]: incapable of flight
deaths of adult flies within 30 minutes [1, 12]: 2 out of 10
flight ability during the observation time [1, 16]: incapable of flight
deaths of adult flies within 30 minutes [1, 16]: 0 out of 10
independent house fly adulticidal properties of the individual component [2]: exhibit varying house fly adulticidal properties
